According to PubChem BioAssay (NCI):
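How tested: cells in 96-well plates exposed to compound for 48 hours at five concentrations. GI50 is the concentration that inhibits growth by half. TGI: total growth inhibition.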

Key:
Test in all cases: growth of human tumour cells (NCI), 48 h
786-0 renal = system: 786-0 renal
A498 renal = system: A498 renal
A549 NSCLC = system: A549 NSCLC
ACHN renal = system: ACHN renal
BT-549 breast = system: BT-549 breast
CAKI-1 renal = system: CAKI-1 renal
CCRF-CEM leukemia = system: CCRF-CEM leukemia
COLO 205 colon = system: COLO 205 colon
DU-145 prostate = system: DU-145 prostate
EKVX NSCLC = system: EKVX NSCLC
HCC-2998 colon = system: HCC-2998 colon
HCT-116 colon = system: HCT-116 colon
HCT-15 colon = system: HCT-15 colon
HL-60(TB) leukemia = system: HL-60(TB) leukemia
HOP-62 NSCLC = system: HOP-62 NSCLC
HS 578T breast = system: HS 578T breast
HT29 colon = system: HT29 colon
IGROV1 ovarian = system: IGROV1 ovarian
K-562 leukemia = system: K-562 leukemia
KM12 colon = system: KM12 colon
LOX IMVI melanoma = system: LOX IMVI melanoma
M14 melanoma = system: M14 melanoma
MALME-3M melanoma = system: MALME-3M melanoma
MDA-MB-231 breast = system: MDA-MB-231 breast
MDA-MB-435 = system: MDA-MB-435
NCI-H226 lung = system: NCI-H226 lung
NCI-H23 lung = system: NCI-H23 lung
NCI-H522 lung = system: NCI-H522 lung
NCI/ADR-RES ovarian = system: NCI/ADR-RES ovarian
OVCAR-3 ovarian = system: OVCAR-3 ovarian
OVCAR-4 ovarian = system: OVCAR-4 ovarian
OVCAR-5 ovarian = system: OVCAR-5 ovarian
OVCAR-8 ovarian = system: OVCAR-8 ovarian
PC-3 prostate = system: PC-3 prostate
RPMI-8226 leukemia = system: RPMI-8226 leukemia
RXF 393 renal = system: RXF 393 renal
SF-295 CNS = system: SF-295 CNS
SF-539 CNS = system: SF-539 CNS
SK-MEL-2 melanoma = system: SK-MEL-2 melanoma
SK-MEL-28 melanoma = system: SK-MEL-28 melanoma
SK-MEL-5 melanoma = system: SK-MEL-5 melanoma
SK-OV-3 ovarian = system: SK-OV-3 ovarian
SN12C renal = system: SN12C renal
SNB-75 CNS = system: SNB-75 CNS
SR leukemia = system: SR leukemia
SW-620 colon = system: SW-620 colon
T-47D breast = system: T-47D breast
TK-10 renal = system: TK-10 renal
U251 CNS = system: U251 CNS
UACC-257 melanoma = system: UACC-257 melanoma
UACC-62 melanoma = system: UACC-62 melanoma
UO-31 renal = system: UO-31 renal

C=CCC(N[C@H](CO)c1ccccc1)c1ccccn1 (some centres undefined)
GI50 (786-0 renal): > 100 µM | TGI (786-0 renal): > 100 µM | GI50 (A498 renal): > 100 µM | TGI (A498 renal): > 100 µM | GI50 (A549 NSCLC): > 100 µM | TGI (A549 NSCLC): > 100 µM | GI50 (ACHN renal): > 100 µM | TGI (ACHN renal): > 100 µM | GI50 (BT-549 breast): > 100 µM | TGI (BT-549 breast): > 100 µM | GI50 (CAKI-1 renal): > 100 µM | TGI (CAKI-1 renal): > 100 µM | GI50 (CCRF-CEM leukemia): > 100 µM | TGI (CCRF-CEM leukemia): > 100 µM | GI50 (COLO 205 colon): > 100 µM | TGI (COLO 205 colon): > 100 µM | GI50 (DU-145 prostate): > 100 µM | TGI (DU-145 prostate): > 100 µM | GI50 (EKVX NSCLC): > 100 µM | TGI (EKVX NSCLC): > 100 µM | GI50 (HCC-2998 colon): > 100 µM | TGI (HCC-2998 colon): > 100 µM | GI50 (HCT-116 colon): > 100 µM | TGI (HCT-116 colon): > 100 µM | GI50 (HCT-15 colon): > 100 µM | TGI (HCT-15 colon): > 100 µM | GI50 (HL-60(TB) leukemia): 38.6 µM | TGI (HL-60(TB) leukemia): > 100 µM | GI50 (HOP-62 NSCLC): > 100 µM | TGI (HOP-62 NSCLC): > 100 µM | GI50 (HS 578T breast): > 100 µM | TGI (HS 578T breast): > 100 µM | GI50 (HT29 colon): > 100 µM | TGI (HT29 colon): > 100 µM | GI50 (IGROV1 ovarian): 88.2 µM | TGI (IGROV1 ovarian): > 100 µM | GI50 (K-562 leukemia): > 100 µM | TGI (K-562 leukemia): > 100 µM | GI50 (KM12 colon): > 100 µM | TGI (KM12 colon): > 100 µM | GI50 (LOX IMVI melanoma): > 100 µM | TGI (LOX IMVI melanoma): > 100 µM | GI50 (M14 melanoma): > 100 µM | TGI (M14 melanoma): > 100 µM | GI50 (MALME-3M melanoma): > 100 µM | TGI (MALME-3M melanoma): > 100 µM | GI50 (MDA-MB-231 breast): > 100 µM | TGI (MDA-MB-231 breast): > 100 µM | GI50 (MDA-MB-435): > 100 µM | TGI (MDA-MB-435): > 100 µM | GI50 (NCI-H226 lung): > 100 µM | TGI (NCI-H226 lung): > 100 µM | GI50 (NCI-H23 lung): > 100 µM | TGI (NCI-H23 lung): > 100 µM | GI50 (NCI-H522 lung): > 100 µM | TGI (NCI-H522 lung): > 100 µM | GI50 (NCI/ADR-RES ovarian): > 100 µM | TGI (NCI/ADR-RES ovarian): > 100 µM | GI50 (OVCAR-3 ovarian): > 100 µM | TGI (OVCAR-3 ovarian): > 100 µM | GI50 (OVCAR-4 ovarian): > 100 µM | TGI (OVCAR-4 ovarian): > 100 µM | GI50 (OVCAR-5 ovarian): > 100 µM | TGI (OVCAR-5 ovarian): > 100 µM | GI50 (OVCAR-8 ovarian): > 100 µM | TGI (OVCAR-8 ovarian): > 100 µM | GI50 (PC-3 prostate): > 100 µM | TGI (PC-3 prostate): > 100 µM | GI50 (RPMI-8226 leukemia): > 100 µM | TGI (RPMI-8226 leukemia): > 100 µM | GI50 (RXF 393 renal): > 100 µM | TGI (RXF 393 renal): > 100 µM | GI50 (SF-295 CNS): > 100 µM | TGI (SF-295 CNS): > 100 µM | GI50 (SF-539 CNS): > 100 µM | TGI (SF-539 CNS): > 100 µM | GI50 (SK-MEL-2 melanoma): > 100 µM | TGI (SK-MEL-2 melanoma): > 100 µM | GI50 (SK-MEL-28 melanoma): > 100 µM | TGI (SK-MEL-28 melanoma): > 100 µM | GI50 (SK-MEL-5 melanoma): > 100 µM | TGI (SK-MEL-5 melanoma): > 100 µM | GI50 (SK-OV-3 ovarian): > 100 µM | TGI (SK-OV-3 ovarian): > 100 µM | GI50 (SN12C renal): > 100 µM | TGI (SN12C renal): > 100 µM | GI50 (SNB-75 CNS): > 100 µM | TGI (SNB-75 CNS): > 100 µM | GI50 (SR leukemia): > 100 µM | TGI (SR leukemia): > 100 µM | GI50 (SW-620 colon): > 100 µM | TGI (SW-620 colon): > 100 µM | GI50 (T-47D breast): > 100 µM | TGI (T-47D breast): > 100 µM | GI50 (TK-10 renal): > 100 µM | TGI (TK-10 renal): > 100 µM | GI50 (U251 CNS): > 100 µM | TGI (U251 CNS): > 100 µM | GI50 (UACC-257 melanoma): > 100 µM | TGI (UACC-257 melanoma): > 100 µM | GI50 (UACC-62 melanoma): > 100 µM | TGI (UACC-62 melanoma): > 100 µM | GI50 (UO-31 renal): > 100 µM | TGI (UO-31 renal): > 100 µM
